Where two headings read alike, the source gives them in different places.
Key:
bovine serum albumin = biological target: T1, bovine serum albumin (Bos taurus, UniProt P02769); assay: Compound binding to plasma albumin (ultrafiltration, free compound), BSA; assay type: in vitro ADME; details: BSA 40 mg/ml; for fraction unbound at 8 μg/ml: compound 8 μg/ml; for Kd: read-out: Computed (1:1) Kd
T1 construct: from tissue; host or cells: plasma / serum (from the name; preparation not described)
Experimental: (§1) This study was done to measure the binding of compounds of the present invention to plasma albumin. Such binding can result in longer plasma retention times and enhanced therapeutic efficacy for the compounds. The proteins tested were bovine serum albumin, bovine (BSA) at 40 mg/ml and rat albumin at ˜13 mg/ml.
(§2) Spectrophotmetry: Two mL of protein solution in 0.1M phosphate buffer saline (PBS) at pH 7.4 was titrated with compound in 0.2 M phosphate buffer at pH 7.4. The protein concentration was prepared to have absorbance less than 1 at the observation wavelength range (250-500), and the total volume change during titration was controlled below 2%. The compound-protein binding detection was based on the shift of spectrum.
Free compound measurement: One ml of compound and protein mixture was incubated at 37° C. for about 30 min and loaded into Centricon YM-10 (10,000 MW cut-off, for BSA) or Microcon YC-3 (3,000 MW cut-off). The samples were centrifuged in a fixed-angle rotor at 6,000 rpm for about 6-8 min (Centricon) or at 9,000 rpm for about 15 min (Microcon) to allow about 10-20% of the volume to filter through. Free compound passes through the membrane while the free and complexed protein remains in the sample reservoir. The concentration of free compound in the filtrate is assumed to be the same as in the sample above the membrane. A fixed amount of filtrate aliquot was diluted to 0.6 ml with PBS at pH 7.4 (PBS was prepared using 1 tablet from Sigma dissolved in 200 ml deionized H2O) and measured by UV absorbance. To quantify the percentage of free compound, the same compound at the same concentration in PBS solution, as standard, was prepared in parallel through the same process, or a calibration curve was generated through the same process. 1 ml of PBS solution (as blank) and 1 ml of protein solution (as control) also went through the same process and measurement.
Calculations: The method used to determine the percentage of free compound was either (a) % Free compound=(Asample−Acontrol)/Astandard×100, where, A is absorbance at selected wavelength; or (b) Obtaining free compound concentration of sample from calibration curve, and then divided by total concentration: Kd=[P][L]/[PL] (for 1:1 binding), using BSA MW=70,000.

[1] = test system: conversion of Amadori compounds to post Amadori advanced glycation endproducts (bovine serum albumin and ribonuclease A glycated by ribose); assay: Interrupted glycation: inhibition of post-Amadori AGE formation; assay type: biochemical; details: interrupted glycation with ribose, 37° C., pH 7.5; read-out: IC50 for inhibiting the conversion of Amadori compounds to post Amadori advanced glycation endproducts
Experimental: The effect of [2,4′]Bipyridinyl-3′-ol, 5-Hydroxymethyl-4-(1H-imidazol-2-yl)-2-methyl-pyridin-3-ol, and 4-(1H-Imidazol-2-yl)-pyridin-3-ol on post-Amadori AGE formation during interrupted glycation of bovine serum albumin and ribonuclease A by ribose was determined in comparison to pyridoxamine. Modification with ribose was done at 37° C. in 0.2 M phosphate buffer of pH 7.5 containing 0.02% sodium azide. The solutions were kept in capped tubes and opened only to remove timed aliquots that were immediately frozen for later carrying out the various analyses. “Interrupted glycation” experiments were carried out by first incubating protein with the ribose at 37° C. for 8 or 24 h, followed by immediate and extensive dialysis against frequent cold buffer changes at 4° C. The samples were then re-incubated by quickly warming to 37° C. in the absence of external ribose. Aliquots were taken and frozen at various intervals for later analysis. (See U.S. Pat. No. 5,985,857)
The interrupted glycation method for following post-Amadori kinetics of AGE formation allows for the rapid quantitative study of “late” stages of the glycation reaction. Importantly, this method allows for inhibition studies that are free of pathways of AGE formation that arise from glycoxidative products of free sugar or Schiff base (Namiki pathway). The experiments were designed to determine the half-maximal inhibitory concentration of these compounds (“IC50 values”) for inhibiting the conversion of Amadori compounds to post Amadori advanced glycation endproducts.

rat albumin = biological target: T2, rat albumin (Rattus norvegicus, UniProt P02770); assay: Compound binding to plasma albumin (ultrafiltration, free compound), rat albumin; assay type: in vitro ADME; details: compound 10 μg/ml, rat albumin ~13 mg/ml
T2 construct: from tissue; host or cells: plasma (from 'plasma albumin'; preparation not described)
T2 sequence (P02770 25-608): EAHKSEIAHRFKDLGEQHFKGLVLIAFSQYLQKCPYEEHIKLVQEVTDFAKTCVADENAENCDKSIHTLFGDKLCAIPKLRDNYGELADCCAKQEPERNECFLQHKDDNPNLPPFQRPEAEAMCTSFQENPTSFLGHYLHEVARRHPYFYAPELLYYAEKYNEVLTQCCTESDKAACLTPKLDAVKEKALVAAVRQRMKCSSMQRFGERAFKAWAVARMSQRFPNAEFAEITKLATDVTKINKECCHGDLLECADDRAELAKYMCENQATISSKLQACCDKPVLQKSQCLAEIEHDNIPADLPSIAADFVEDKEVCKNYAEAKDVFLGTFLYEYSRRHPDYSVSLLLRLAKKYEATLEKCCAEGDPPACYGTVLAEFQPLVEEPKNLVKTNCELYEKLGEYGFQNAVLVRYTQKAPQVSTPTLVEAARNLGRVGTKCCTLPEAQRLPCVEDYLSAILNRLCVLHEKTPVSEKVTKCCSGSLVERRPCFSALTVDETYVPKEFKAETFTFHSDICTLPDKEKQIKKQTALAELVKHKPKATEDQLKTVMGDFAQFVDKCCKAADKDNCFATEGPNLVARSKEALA
Experimental: as §1, §2
Free compound measurement: One ml of compound and protein mixture was incubated at 37° C. for about 30 min and loaded into Centricon YM-10 (10,000 MW cut-off, for BSA) or Microcon YC-3 (3,000 MW cut-off). […] A fixed amount of filtrate aliquot was diluted to 0.6 ml with PBS at pH 7.4 (PBS was prepared using 1 tablet from Sigma dissolved in 200 ml deionized H2O) and measured by UV absorbance. To quantify the percentage of free compound, the same compound at the same concentration in PBS solution, as standard, was prepared in parallel through the same process, or a calibration curve was generated through the same process. […]

[2] = test system: streptozotocin (STZ)-diabetic rats; assay: Rat model of diabetic neuropathy (STZ-diabetic rats); assay type: in vivo; details: 50 mg/L in drinking water
Experimental: Our aim was to ascertain whether BST-4997 treatment could correct nerve dysfunction in streptozotocin (STZ)-diabetic rats. Animals (n=10) were made diabetic for 6 weeks (group D), following which they were treated for 2 weeks with BST-4997 (group DBST) given in the drinking water at a concentration of 50 mg/L. They were compared to control non-diabetic rats (groups C). Statistical significance is reported according to the legend: **, *** p<0.01, p<0.001 versus untreated controls; ### p<0.001 treatment effect versus untreated diabetics.
FIG. 13 provides a graphical representation of the effect of BST-4997 on restoring nerve conduction velocity (NCV) in the STZ rats. Motor NCV was tested between the sciatic notch and knee for the nerve branch to tibialis anterior muscle, as described in Cameron et al., Q. J. Exp. Physiol. 74: 917-926 (1989); and Cameron et al., Exp. Neurol. 92: 757-761 (1986). Saphenous sensory NCV was measured between the groin and ankle.
FIG. 14 provides a graphical representation of the effect of BST-4997 on restoring endoneurial perfusion in the STZ rats. Vascular blood flow, pressure, and conductance were measured.
FIG. 15 provides a graphical representation of the effect of BST-4997 on improving pain related measures in the STZ rats. Responses to tactile allodynia, pressure, and thermal stimuli were measured.

[3] = bovine, bovine serum albumin solution (40 mg/ml), pH 7.4, 37° C.
[4] = STZ rats diabetic 6 weeks, then 2 weeks treatment, FIG. 13
[5] = STZ rats, 2 weeks treatment, FIG. 14
[6] = STZ rats, 2 weeks treatment, FIG. 15

T1 sequence (P02769 25-607): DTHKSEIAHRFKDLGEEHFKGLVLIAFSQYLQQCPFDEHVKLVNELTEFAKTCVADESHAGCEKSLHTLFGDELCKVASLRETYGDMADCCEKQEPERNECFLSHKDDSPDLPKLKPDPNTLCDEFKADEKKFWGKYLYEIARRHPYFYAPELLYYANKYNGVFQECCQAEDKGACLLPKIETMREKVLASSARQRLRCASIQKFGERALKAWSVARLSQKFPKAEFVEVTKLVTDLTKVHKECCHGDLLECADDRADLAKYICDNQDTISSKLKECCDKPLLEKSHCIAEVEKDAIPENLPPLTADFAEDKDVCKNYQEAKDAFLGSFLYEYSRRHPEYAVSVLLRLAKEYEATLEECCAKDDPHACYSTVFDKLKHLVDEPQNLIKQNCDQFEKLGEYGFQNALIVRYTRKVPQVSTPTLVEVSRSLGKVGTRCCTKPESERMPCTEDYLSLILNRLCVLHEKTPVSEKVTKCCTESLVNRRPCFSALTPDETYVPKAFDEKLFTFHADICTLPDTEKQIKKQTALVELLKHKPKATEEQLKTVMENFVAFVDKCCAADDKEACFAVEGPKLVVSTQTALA

## Oc1cnccc1-c1ncc[nH]1 [BST4996, 4-(1H-Imidazol-2-yl)-pyridin-3-ol]
Bovine serum albumin; [3]
  fraction unbound at 8 μg/ml: 0.53
[1]
  IC50: 200 to 300 µM

## Oc1cnccc1-c1ccccn1 [BST4944, [2,4′]Bipyridinyl-3′-ol]
Bovine serum albumin; [3]
  fraction unbound at 8 μg/ml: 0.34
[1]
  IC50: 2000 µM

## Cc1ncc(CO)c(CN)c1O [pyridoxamine, reference compound]
[1]
  IC50: ~3000 µM

## Cc1ncc(CO)c(-c2ncc[nH]2)c1O [BST4997, 5-Hydroxymethyl-4-(1H-imidazol-2-yl)-2-methyl-pyridin-3-ol]
Bovine serum albumin; bovine, bovine serum albumin solution (40 mg/ml), compound 5 μg/ml, pH 7.4, 37° C., read-out: % Free BST4997
  fraction unbound at 5 μg/ml: 0.31
Bovine serum albumin; bovine, bovine serum albumin solution (40 mg/ml), compound 10 μg/ml, pH 7.4, 37° C., read-out: % Free BST4997
  fraction unbound at 10 μg/ml: 0.3
Bovine serum albumin; bovine, bovine serum albumin solution (40 mg/ml), compound 20 μg/ml, pH 7.4, 37° C., read-out: % Free BST4997
  fraction unbound at 20 μg/ml: 0.38
Bovine serum albumin; compound 5 μg/ml
  Kd: 260 µM
Bovine serum albumin; compound 10 μg/ml
  Kd: 240 µM
Bovine serum albumin; compound 20 μg/ml
  Kd: 320 µM
Rat albumin; read-out: Computed (1:1) Kd
  Kd: 350 µM
Rat albumin; rat albumin solution (~13 mg/ml), pH 7.4, 37° C., read-out: % Free BST4997
  fraction unbound at 10 μg/ml: 0.67
[2]; [4]
  diabetes-associated defect in motor nerve conduction velocity (NCV): dramatically reduced
  diabetes-associated defect in sensory nerve conduction velocity (NCV): dramatically reduced
[2]; STZ rats, 2 weeks treatment
  correction of nerve dysfunction: effective in correcting nerve dysfunction
[2]; [5]
  diabetes-associated defect in endoneurial blood flow: dramatically reduced
  diabetes-associated defect in endoneurial vascular conductance: dramatically reduced
[2]; [6]
  diabetes-associated defect in tactile allodynia: dramatically reduced
  diabetes-associated defect in thermal hyperalgesia (latency for foot withdrawal from a noxious heat stimulus): dramatically reduced
[1]
  IC50: 200 to 300 µM

From patent US20040122061A1, “Inhibitors of post-amadori advanced glycation end products” (BioStratum, Inc., priority 2002, published 2004)
